The target in this test is human sphingosine kinase 1 (hSK1) (Homo sapiens, UniProt Q9NYA1). The test is described as follows: sphingosine kinase 1 assay with fluoresceinated sphingosine, barium acetate/ethanol precipitation of fluoresceinated S1P, fluorescence readout. Type of test: biochemical. Particulars: 100 μM inhibitor; 4 μM sphingosine fluoresceine; 500 μM ATP; 1 h at 37° C. An excerpt:
Sphingosine is phosphorylated at the non-polar end by the enzymes sphingosine kinase 1 and sphingosine kinase 2, to form sphingosine-1-phosphate (S1P). S1P is an important signaling molecule, and serves in particular as a major regulator of vascular and immune systems. See, e.g., Lloyd-Evans et al., Nat. Med. 14:1247-1255 (2008); Ryu et al., EMBO J. 25:5840-5851 (2006); Maceyka et al., J. Lipid Res. 50:S272-S276 (2009); Peterson et al., Proc. Natl. Acad. Sci. USA 105:20764-20769; and U.S. Pat. No. 6,730,480. Thus, the detection of S1P and the sphingosine kinases is important for the understanding of the various systems that S1P influences. Current methods for separating sphingosine from S1P generally use chromatographic, electrophoretic or spectrometric methods. See, e.g., Bandhuvula et al., Biochem. Biophys. Res. Commun. 380:366-370 (2009); Lee et al., Anal. Chem. 80:1620-1627 (2008); Jin et al., Arch. Pharm. […]
The S1P formed by the enzyme was then precipitated in the reaction mix by the addition of 5 μl of 1 M barium acetate+300 μL of 100% ethanol, followed by 30 min incubation on ice. […] The eluted fluoresceinated S1P was quantified by measuring intensity of fluorescence. Preliminary studies established that the two wash steps were sufficient to remove essentially the entire quantity of unprecipitated sphingosine fluorescein. […]

Chain of human sphingosine kinase 1 (hSK1) (Q9NYA1 whole entry): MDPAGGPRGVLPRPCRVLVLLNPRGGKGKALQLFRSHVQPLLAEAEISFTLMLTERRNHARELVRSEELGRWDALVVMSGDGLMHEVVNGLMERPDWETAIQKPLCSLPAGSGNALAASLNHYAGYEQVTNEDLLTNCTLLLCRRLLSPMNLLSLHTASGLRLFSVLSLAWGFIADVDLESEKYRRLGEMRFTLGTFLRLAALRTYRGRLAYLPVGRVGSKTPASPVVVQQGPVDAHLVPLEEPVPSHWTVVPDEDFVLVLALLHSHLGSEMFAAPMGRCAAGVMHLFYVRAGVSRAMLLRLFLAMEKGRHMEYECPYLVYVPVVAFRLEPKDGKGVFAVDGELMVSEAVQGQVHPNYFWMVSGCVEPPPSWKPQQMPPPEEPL

On to `CCCCCCCCCCCCC/C=C/[C@@H](O)[C@@H](N)CO` [D/L sphingosine], for which the “inhibition of hSK1 (precipitation of the fluoresceinated product, FIG. 6)” value was “caused less precipitation of the fluoresceinated product”.

On to `CCCCCCCCCCCCC/C=C/[C@@H](O)[C@H](CO)N(C)C` [DMS, dimethylsphingosine], for which the “inhibition of hSK1 (precipitation of the fluoresceinated product, FIG. 6)” value is recorded as “caused less precipitation of the fluoresceinated product”.

These data come from patent US11874281B2, “Assays for detecting modified compounds” (Enzo Life Sciences, Inc., priority 2010, dated 2024).
